Data taken from patent US20160271139A1, “METHOD FOR NON-TOXIC TREATMENT FOR DRUG WITHDRAWAL” (DEMERX, INC., priority 2013, published 2016).
“Also recorded” adds a separate entry of the source.

Assays:
dogs = assay: Single dose acute oral toxicity/TK study in dogs; type: in vivo, dog
cynomolgus monkey = assay: Single dose toxicity in cynomolgus monkeys; type: in vivo; settings: oral gavage
Description: The objective of the study was to determine the toxicity and toxicokinetic profile of noribogaine following oral (gavage) administration to the cynomolgus monkey. The test article was administered as follows in Table 1:
Parameters monitored on the study included: mortality, clinical signs and body weights. Blood samples were collected for TK evaluation. […] The single dose maximum tolerated dose (MTD) was determined to be greater than 160 mg/kg based on the parameters monitored during the study.

[1] = Plasma toxicokinetics in dogs, days 1 and 14; type: in vivo, dog; settings: for T1/2 / Tmax: mean plasma
Description: Noribogaine HCl was administered to groups of 4 male and 4 female dogs by single oral gavage daily for 14 days at doses of 0, 0.5, 1.0 and 5.0 mg/kg/day. An additional group of 4 male and 4 female dogs received either the vehicle control or 5.0 mg/kg/day for 14 days and were held for an additional 28 days after cessation of dosing to assess recovery from any potential drug-induced changes. The study was conducted under GLP guidelines and included comprehensive examinations of clinical signs, body weight, clinical pathology parameters, ophthalmologic examinations. ECG recordings and analyses of plasma for bioanalytical measurement of drug levels at appropriate intervals during the study. At the termination of the dosing phase and at the termination of the recovery phase, all dogs were subjected to a complete post-mortem examination including gross examination of major organs and histologic examination of an extensive list of tissues. Additional sections of brain were obtained from cerebrum, cerebellus, brain stem and spinal cord and examined histologically to evaluate potential effects on brain histopathology. In addition, these sections were examined with immunohistochemical stains for GFAP for evidence of gliosis and Calbindin for a more comprehensive examination of cerebellar Purkinje cells.

[2] = Human pharmacokinetic study, single oral dose, serum levels (Example 6); type: in vivo; settings: human serum, fasting
Description: In double blind studies, fasting healthy volunteers (6 per cohort) were treated once orally with a tablet of noribogaine HCl. In escalating cohorts, the volunteers received 3 mg, 10 mg, 30 mg or 60 mg noribogaine.

[3] = Plasma noribogaine pharmacokinetics in healthy volunteers (Example 7); type: in vivo, human; settings: for AUC0-216 / AUC0-∞ / CL/F / Tmax / t1/2: mean
[4] = Urine noribogaine and noribogaine glucuronide elimination in healthy volunteers; type: in vivo; settings: human urine
[5] = system: healthy, drug-free male volunteers; assay: Pupillary miosis by pupillometry in healthy volunteers; type: in vivo, human; settings: single oral 3-60 mg, vs placebo p>0.9
Description: Pulse oximetry and capnography data were collected continuously using a GE Carescape B650 monitoring system from 2 hours prior to dosing and until six hours after dosing, and thereafter at 12, 24, 48 and 72 hours post-dosing. […] Pupillary miosis was assessed by pupillometry.
Dose-proportionality of AUC and Cmax was assessed using linear regression.

[6] = system: healthy, drug-free male volunteers; assay: Safety and tolerability in healthy volunteers; type: in vivo, human
Description: Safety and tolerability of noribogaine were tested in the group of volunteers from Example 1. […] Safety evaluations included clinical monitoring, recording of adverse events (AEs), safety laboratory tests, vital signs, ECO telemetry from −2 h to 6 h after dosing, and 12-lead electrocardiograms (ECGs) up to 216 hours post-dosing.

[7] = system: opioid-dependent participants; assay: Efficacy in opioid-dependent participants: time to resumption of opioid substitution treatment; type: in vivo, human
Description: (§1) The efficacy of noribogaine in humans was evaluated in opioid-dependent participants in a randomized, placebo-controlled, double-blind trial. In the first cohort, six patients were orally administered a single dose of 60 mg noribogaine, and three patients received placebo. In the second cohort, five patients were orally administered a single dose of 120 mg noribogaine, and three patients received placebo.

[8] = system: opioid-dependent participants; assay: Safety (QT interval, adverse effects) in opioid-dependent participants; type: in vivo, human
Description: as §1

various animal species = assay: Pre-clinical toxicity studies in various animal species (background); type: in vivo
[9] = system: animal models of addiction; settings: cited from earlier work
[10] = female dogs, Gr 2 - 0.5 mg/kg, D1
[11] = female dogs, Gr 2 - 0.5 mg/kg, D14
[12] = female dogs, Gr 3 - 1.0 mg/kg, D1
[13] = female dogs, Gr 3 - 1.0 mg/kg, D14
[14] = female dogs, Gr 4 - 5.0 mg/kg, D1
[15] = female dogs, Gr 4 - 5.0 mg/kg, D14
[16] = single oral dose 30 mg free base
[17] = human plasma, single oral 3 mg (n = 6)
[18] = human plasma, single oral 10 mg (n = 6)
[19] = human plasma, single oral 30 mg (n = 6)
[20] = human plasma, single oral 60 mg (n = 6)
[21] = opioid-dependent participants, single oral 60 mg or 120 mg

CC[C@H]1C[C@H]2C[C@H]3c4[nH]c5ccc(O)cc5c4CCN(C2)[C@@H]13 [noribogaine]
NOAEL (dogs): 5 mg/kg
Findings at the NOAEL dose (dogs; 5 mg/kg): only transient reduction in food consumption in one dog
Clinical signs (dogs; 10 mg/kg, beginning 20 minutes after dosing, persisting until 3 h 40 m post-dose): Convulsions and other CNS-related clinical signs
Mortality (dogs; 5 (n=2) or 10 (n=2) mg/kg): no mortality occurred
Single dose maximum tolerated dose (MTD) (cynomolgus monkey): greater than 160 mg/kg
Mortality or treatment related clinical signs (cynomolgus monkey; doses up to and including 160 mg/kg): No mortality or treatment related clinical signs
T1/2 [1, 10]: 1.0 h
Tmax [1, 10]: 0.5 h
T1/2 [1, 11]: 1.1 h
Tmax [1, 11]: 1.0 h
T1/2 [1, 12]: 1.4 h
Tmax [1, 12]: 0.8 h
T1/2 [1, 13]: 1.6 h
Tmax [1, 13]: 0.5 h
T1/2 [1, 14]: 4.3 h
Tmax [1, 14]: 0.6 h
T1/2 [1, 15]: 5.7 h
Tmax [1, 15]: 0.6 h
Plasma level at 24 h post-dosing ([1]; male and female dogs of Group 4 (5.0 mg/kg), Days 1 and 14): significant levels of noribogaine were still detected
Tmax ([1]; male dogs, Gr 2 - 0.5 mg/kg, D1): 0.7 h
Tmax ([1]; male dogs, Gr 2 - 0.5 mg/kg, D14): 0.7 h
Tmax ([1]; male dogs, Gr 3 - 1.0 mg/kg, D1): 0.9 h
Tmax ([1]; male dogs, Gr 3 - 1.0 mg/kg, D14): 0.8 h
Tmax ([1]; male dogs, Gr 4 - 5.0 mg/kg, D1): 0.6 h
Tmax ([1]; male dogs, Gr 4 - 5.0 mg/kg, D14): 0.9 h
time after administration at which mean Cmax was observed ([2]; single oral dose 3 mg free base): 1.9 h
time after administration at which mean Cmax was observed ([2]; single oral dose 10 mg free base): 2.9 h
mean Cmax [2, 16]: 55.0 ng/mL
time after administration at which mean Cmax was observed [2, 16]: 1.75 h
time after administration at which mean Cmax was observed ([2]; single oral dose 60 mg free base): 1.75 h
Dose proportionality of Cmax and AUC ([3]; human plasma, 3-60 mg): increased linearly with dose
Mean half-life estimates ([3]; human plasma, across dose groups): 28 to 50 h
Time of peak concentrations after oral dosing ([3]; human plasma, across dose groups 3-60 mg): 2 to 3 h
AUC0-216 [3, 17]: 72.2 ng·h/mL
AUC0-∞ [3, 17]: 74.2 ng·h/mL
CL/F [3, 17]: 41.4 L/h
Tmax [3, 17]: 1.9 h
t1/2 [3, 17]: 40.9 h
AUC0-216 [3, 18]: 251.4 ng·h/mL
AUC0-∞ [3, 18]: 254.5 ng·h/mL
CL/F [3, 18]: 42.3 L/h
Tmax [3, 18]: 2.9 h
t1/2 [3, 18]: 49.2 h
AUC0-216 [3, 19]: 677.6 ng·h/mL
AUC0-∞ [3, 19]: 700.4 ng·h/mL
CL/F [3, 19]: 46.9 L/h
Tmax [3, 19]: 1.8 h
t1/2 [3, 19]: 27.6 h
AUC0-216 [3, 20]: 1935.4 ng·h/mL
AUC0-∞ [3, 20]: 1962.2 ng·h/mL
CL/F [3, 20]: 34.0 L/h
Tmax [3, 20]: 2.4 h
t1/2 [3, 20]: 29.1 h
Volume of distribution ([3]; human, across dose groups): 1417 to 3086 L
Total urine noribogaine elimination (sum of noribogaine and noribogaine glucuronide) ([4]; 30 mg dose group): 1.16 mg
Total urine noribogaine elimination as share of the dose administered ([4]; 30 mg dose group): 3.9%
Total urine noribogaine elimination (sum of noribogaine and noribogaine glucuronide) ([4]; 60 mg dose group): 0.82 mg
Total urine noribogaine elimination as share of the dose administered ([4]; 60 mg dose group): 1.4%
Pupillary constriction (dark-adapted pupil diameter) [5]: no evidence of pupillary constriction
Number of adverse events reported ([6]; healthy volunteers, 3 mg dose group): five adverse events were reported by two subjects
Number of adverse events reported ([6]; healthy volunteers, 10 mg dose group, single subject): one adverse event
Number of adverse events reported ([6]; healthy volunteers, 30 mg dose group, single subject): one adverse event
Oximetry, capnography, respiratory rate ([6]; healthy volunteers, 3-60 mg): no changes in oximetry or capnography, or changes in respiratory rate
Vital signs or safety laboratory tests ([6]; healthy volunteers, 3-60 mg): no changes in vital signs or safety laboratory tests of note
QTcF values >500 msec ([6]; healthy volunteers, 3-60 mg, at any time): no QTcF values>500 msec at any time
Adverse events, Mild ([6]; healthy volunteers, Dose 3 mg): Dizziness; also recorded: Epistaxis; also recorded: Headache; also recorded: Back pain
Adverse events, Moderate ([6]; healthy volunteers, Dose 3 mg): Headache
Adverse events, Mild ([6]; healthy volunteers, Dose 10 mg): Headache
Adverse events, Mild ([6]; healthy volunteers, Dose 30 mg): Headache
Single increase in QTcF ([6]; one subject dosed with 10 mg, at 24 hours post-dosing): > 60 ms
Time to resumption of opioids longer than that reported for untreated patients in a similar study ([7]; first cohort, blinded: 60 mg noribogaine or placebo): ~2 h
Average time to resumption of opioids ([7]; first cohort, blinded: single oral 60 mg noribogaine (6 patients) or placebo (3 patients)): approximately 8.7 hours
Average time to resumption of OST ([7]; second cohort, 120 mg, five presumed noribogaine-treated patients (those with QT prolongation)): approximately 26.8 hours
Average time to resumption of opioids ([7]; second cohort, blinded: single oral 120 mg noribogaine (5 patients) or placebo (3 patients)): approximately 23 hours
Mean prolongation of the QT interval ([8]; first cohort, 60 mg noribogaine or placebo): less than 10 ms
Adverse effects [8, 21]: No adverse effects of noribogaine were observed in any of the participants
Hallucinatory effects [8, 21]: no hallucinatory effects
Mean prolongation of the QT interval ([8]; second cohort, 120 mg noribogaine or placebo): less than 40 ms
Toxicity at high doses (various animal species): can cause convulsions and other CNS-related clinical signs, respiratory arrest and death
Efficacy in animal models of addiction ([9]; alcohol, cocaine and opiate dependence): effective in animal models of addiction to alcohol, cocaine and opiate dependence
Psychotomimetic effects ([9]; animal model): had no activity
Drug-seeking behavior ([9]; various animal addiction models): significantly reduced drug-seeking behavior
